Measured values reported in patent publication US7935722B2 (Eli Lilly and Company, priority 2005, dated 2011).
Where two headings read alike, the source gives them in different places.

Legend:
[1] = target: T1, human AR (androgen receptor) (Homo sapiens, UniProt P10275); test: Steroid hormone nuclear receptor binding assay, AR binding
T1 construct: expressed in transfected cells; host or cells: 293 cells (293-AR lysate)
T1 sequence (P10275 1-920): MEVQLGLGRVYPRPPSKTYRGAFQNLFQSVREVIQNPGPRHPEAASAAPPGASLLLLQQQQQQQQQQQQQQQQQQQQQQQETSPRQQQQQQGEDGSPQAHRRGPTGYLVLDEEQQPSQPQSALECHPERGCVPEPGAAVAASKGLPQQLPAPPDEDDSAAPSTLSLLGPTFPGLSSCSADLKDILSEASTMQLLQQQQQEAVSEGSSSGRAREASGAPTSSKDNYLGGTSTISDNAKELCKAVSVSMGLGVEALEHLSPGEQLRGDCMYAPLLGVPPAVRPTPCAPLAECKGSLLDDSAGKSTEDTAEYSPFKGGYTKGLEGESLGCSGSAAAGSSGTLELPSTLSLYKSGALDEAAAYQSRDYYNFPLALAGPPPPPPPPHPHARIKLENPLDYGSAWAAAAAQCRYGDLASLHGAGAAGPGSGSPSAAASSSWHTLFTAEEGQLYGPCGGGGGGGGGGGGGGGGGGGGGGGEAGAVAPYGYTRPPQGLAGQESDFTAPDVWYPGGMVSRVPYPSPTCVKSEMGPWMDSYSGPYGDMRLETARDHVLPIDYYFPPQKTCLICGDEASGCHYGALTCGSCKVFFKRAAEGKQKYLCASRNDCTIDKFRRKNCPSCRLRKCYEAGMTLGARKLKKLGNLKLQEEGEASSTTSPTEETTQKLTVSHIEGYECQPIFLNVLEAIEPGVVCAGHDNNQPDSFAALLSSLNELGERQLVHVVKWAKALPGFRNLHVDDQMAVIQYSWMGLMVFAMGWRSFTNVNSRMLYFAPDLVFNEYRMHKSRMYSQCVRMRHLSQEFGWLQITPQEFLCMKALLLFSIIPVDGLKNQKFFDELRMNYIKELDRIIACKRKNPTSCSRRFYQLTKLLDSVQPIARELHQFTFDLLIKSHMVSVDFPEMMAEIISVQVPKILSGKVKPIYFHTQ
How it was run: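 Competition binding with lysates of 293 cells overexpressing human AR, [3H]-methyltrienolone tracer, compounds from about 0.01 nM to 10 μM, overnight at 4 °C; non-specific binding set with 500 nM methyltrienolone. Bound tracer counted by scintillation after charcoal-dextran separation; IC50 converted to Ki by Cheng-Prusoff using Kd from saturation binding.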

[2] = target: T2, human androgen receptor (AR) (Homo sapiens, UniProt P10275); test: C2C12 AR/ARE reporter assay; assay type: cell-based
T2 construct: expressed in transfected cells; host or cells: mouse myoblast C2C12 cells, transiently co-transfected
T2 sequence (P10275 1-920): T1 sequence (P10275 1-920)
How it was run: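 Mouse C2C12 myoblasts co-transfected with AR/ARE reporter were plated in charcoal-stripped serum and treated for 48 h with compound from about 0.01 nM to 10 μM. Luciferase activity gave EC50 by 4-parameter logistic fit. Efficacy is expressed as % of maximal stimulation by 10 nM methyltrienolone.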

[3] = average of n trials, read-out: AR binding Ki
[4] = C2C12 AR/ARE reporter assay, average of n trials, read-out: C2C12 % Efficacy
[5] = C2C12 AR/ARE reporter assay, average of n trials, read-out: C2C12 EC50
[6] = C2C12, read-out: C2C12 % Efficacy

CC(C)C(=O)NC1CCc2c(c3cc(C#N)ccc3n2Cc2ccc(Cl)s2)C1 (stereo not drawn) [Example 148, N-[9-(5-Chloro-thiophen-2-ylmethyl)-6-cyano-2,3,4,9-tetrahydro-1H-carbazol-3-yl]-isobutyramide]
Ki [1, 3]: 7.3 nM
Emax [2, 4]: 86.7%
EC50 [2, 5]: 23.8 nM

CC(C)C(=O)NC1CCc2c(c3cc(-c4ccc(F)nc4)ccc3n2Cc2cccc(F)c2)C1 (stereo not drawn) [Example 135]
Ki [1, 3]: 20.4 nM
Emax [2, 4]: 66%
EC50 [2, 5]: 62.3 nM

COc1ccc2c(c1)c1c(n2Cc2ccccn2)CCC(NC(=O)C(C)C)C1 (stereo not drawn) [Example 143, N-(6-methoxy-9-pyridin-2-ylmethyl-2,3,4,9-tetrahydro-1H-carbazol-3-yl)-isobutyramide]
Ki [1]: 362 nM
EC50 [2]: 351 nM
Emax [2, 6]: 80.3%

CC(C)C(=O)N[C@@H]1CCc2c(c3cc(C#N)ccc3n2Cc2cccc(F)n2)C1 [Example 183, (R)-N-[6-Cyano-9-(6-fluoro-pyridin-2-ylmethyl)-2,3,4,9-tetrahydro-1H-carbazol-3-yl]-isobutyramide]
Ki [1, 3]: 4.3 nM
Emax [2, 4]: 95.3%
EC50 [2, 5]: 0.7 nM

COC(=O)N[C@@H]1CCc2c(c3cc(C#N)ccc3n2Cc2ccccn2)C1 [Example 185, (6(R)-Cyano-9-pyridin-2-ylmethyl-2,3,4,9-tetrahydro-1H-carbazol-3-yl)-carbamic acid methyl ester]
Ki [1, 3]: 23.3 nM
Emax [2, 4]: 77.5%
EC50 [2, 5]: 76 nM

COc1ccc2c(c1)c1c(n2Cc2ccncc2)CCC(NC(=O)C(C)C)C1 (stereo not drawn) [Example 145]
Ki [1]: 1400 nM
EC50 [2]: 2050 nM
Emax [2, 6]: 46.6%

CC(C)C(=O)NC1CCc2c(c3cc(C#N)ccc3n2Cc2ccsc2)C1 (stereo not drawn) [Example 157, N-(6-Cyano-9-thiophen-3-ylmethyl-2,3,4,9-tetrahydro-1H-carbazol-3-yl)-isobutyramide]
Ki [1, 3]: 5.2 nM
Emax [2, 4]: 72.3%
EC50 [2, 5]: 3 nM

CC(C)C(=O)NC1CCc2c(c3cc(C#N)ccc3n2Cc2ccccc2N(C)C)C1 (stereo not drawn) [Example 114, N-[6-Cyano-9-furan-(2-dimethylamino-benzyl)-2,3,4,9-tetrahydro-1H-carbazol-3-yl]-isobutyramide]
Ki [1]: 20.8 nM
EC50 [2]: 98.7 nM
Emax [2, 6]: 118%

CC(C)C(=O)NC1CCc2c(c3cc(C#N)cc(F)c3n2Cc2cccc(F)c2)C1 (stereo not drawn) [Example 121, N-[6-Cyano-8-fluoro-9-(3-fluoro-benzyl)-2,3,4,9-tetrahydro-1H-carbazol-3-yl]-isobutyramide]
Ki [1]: 2.9 nM
EC50 [2]: 6.2 nM
Emax [2, 6]: 110%

CC(C)C(=O)NC1CCc2c(c3cc(OC(F)(F)F)ccc3n2Cc2cccc(F)n2)C1 (stereo not drawn) [Example 162, N-[9-(6-Fluoro-pyridin-2-ylmethyl)-6-trifluoromethoxy-2,3,4,9-tetrahydro-1H-carbazol-3-yl]-isobutyramide]
Ki [1]: 8.6 nM
EC50 [2]: 9.2 nM
Emax [2, 6]: 81.7%

CN(C)C(=O)NC1CCc2c(c3cc(C#N)ccc3n2Cc2cccc(F)c2)C1 (stereo not drawn) [Example 178, 3-[6-Cyano-9-(3-fluorobenzyl)-2,3,4,9-tetrahydro-1H-carbazol-3-yl]-1,1-dimethylurea]
Ki [1, 3]: 5.9 nM
Emax [2, 4]: 81.8%
EC50 [2, 5]: 11.5 nM

CC(C)C(=O)NC1CCc2c(c3cc(C#N)ccc3n2Cc2cccs2)C1 (stereo not drawn) [Example 158, N-(6-Cyano-9-thiophen-2-ylmethyl-2,3,4,9-tetrahydro-1H-carbazol-3-yl)-isobutyramide]
Ki [1]: 3.1 nM
EC50 [2]: 4.5 nM
Emax [2, 6]: 124%

CC(C)C(=O)NC1CCc2c(c3cc([N+](=O)[O-])ccc3n2Cc2cccc(F)c2)C1 (stereo not drawn) [Example 61, N-[9-(3-Fluorobenzyl)-6-nitro-2,3,4,9-tetrahydro-1H-carbazol-3-yl]isobutyramide]
Ki [1]: 2.3 nM
EC50 [2]: 3.6 nM
Emax [2, 6]: 83.2%

CC(C)Oc1ccc2c(c1)c1c(n2Cc2cccc(F)c2)CCC(NC(=O)C(C)C)C1 (stereo not drawn) [Example 94, N-[9-(3-Fluoro-benzyl)-6-isopropoxy-2,3,4,9-tetrahydro-1H-carbazol-3-yl]-isobutyramide]
Ki [1]: 38.3 nM
EC50 [2]: 41 nM
Emax [2, 6]: 101%

CC(C)C(=O)N[C@@H]1CCc2c(c3cc(C#N)ccc3n2Cc2cnccn2)C1 [Example 160, (R)-N-(6-Cyano-9-pyrazin-2-ylmethyl-2,3,4,9-tetrahydro-1H-carbazol-3-yl)-isobutyramide]
Ki [1]: 19.8 nM
EC50 [2]: 6.3 nM
Emax [2, 6]: 89.5%

Cc1nc(Cn2c3c(c4cc(C=O)ccc42)C[C@H](NC(=O)C(C)C)CC3)cs1 [Example 211, (R)-N-[6-Formyl-9-(2-methyl-thiazol-4-ylmethyl)-2,3,4,9-tetrahydro-1H-carbazol-3-yl]-isobutyramide]
Ki [1]: 43.7 nM
EC50 [2]: 86.7 nM
Emax [2, 6]: 88.4%

CC(C)C(=O)NC1CCc2c(c3cc(-c4cccnc4)ccc3n2Cc2cccc(F)c2)C1 (stereo not drawn) [Example 132]
Ki [1]: 7.4 nM
EC50 [2]: 5.4 nM
Emax [2, 6]: 83.9%

CON(C)C(=O)NC1CCc2c(c3cc(C#N)ccc3n2Cc2cccc(F)c2)C1 (stereo not drawn) [Example 180, 3-[6-Cyano-9-(3-fluorobenzyl)-2,3,4,9-tetrahydro-1H-carbazol-3-yl]-1-methoxy-1-methyl-urea]
Ki [1]: 4.6 nM
EC50 [2]: 2.2 nM
Emax [2, 6]: 97%

COc1ccc2c(c1)c1c(n2Cc2cccc(Cl)c2)CCC(NC(=O)C(C)C)C1 (stereo not drawn) [Example 70]
Ki [1]: 10 nM
EC50 [2]: 39.8 nM
Emax [2, 6]: 63.9%

CC(C)C(=O)NC1CCc2c(c3cc(OCC4CC4)ccc3n2Cc2cccc(F)c2)C1 (stereo not drawn) [Example 92, N-[6-Cyclopropylmetboxy-9-(3-fluoro-benzyl)-2,3,4,9-tetrahydro-1H-carbazol-3-yl]-isobutyramide]
Ki [1]: 4.1 nM
EC50 [2]: 3 nM
Emax [2, 6]: 73.4%

COC(=O)c1ccc2c(c1)c1c(n2Cc2cccc(F)c2)CC[C@@H](NC(=O)C(C)C)C1 [Example 187, (R)-9-(3-fluorobenzyl)-6-isobutyrylamino-6,7,8,9-tetrahydro-5H-carbazole-3-carboxylic acid methyl ester]
Ki [1]: 2.3 nM
EC50 [2]: 2.4 nM
Emax [2, 6]: 77.8%

COc1ccc2c(c1)c1c(n2Cc2cccnc2)CCC(NC(=O)C(C)C)C1 (stereo not drawn) [Example 144]
Ki [1]: 737 nM
EC50 [2]: 275 nM
Emax [2, 6]: 41.4%

CC(C)C(=O)NC1CCc2c(c3cc(Br)ccc3n2Cc2cccc(F)c2)C1 (stereo not drawn) [Example 35, N-[6-bromo-9-(3-fluoro-benzyl)-2,3,4,9-tetrahydro-1H-carbazol-3-yl]-isobutyramide]
Ki [1]: 2.6 nM
EC50 [2]: 2.3 nM
Emax [2, 6]: 74.1%

Cc1nc(Cn2c3c(c4cc(C#N)ccc42)C[C@H](NC(=O)C(C)C)CC3)cs1 [Example 151, (R)-N-[6-cyano-9-(2-methyl-thiazol-4-ylmethyl)-2,3,4,9-tetrahydro-1H-carbazol-3-yl]-isobutyramide]
Ki [1]: 12.4 nM
EC50 [2]: 30.4 nM
Emax [2, 6]: 85.6%

CC(C)C(=O)NC1CCc2c(c3cc(C#N)cc(Cl)c3n2Cc2cccc(F)c2)C1 (stereo not drawn) [Example 119, N-[8-Chloro-6-cyano-9-(3-fluoro-benzyl)-2,3,4,9-tetrahydro-1H-carbazol-3-yl]-isobutyramide]
Ki [1, 3]: 7.3 nM
Emax [2, 4]: 99.1%
EC50 [2, 5]: 34.2 nM

CN(C)S(=O)(=O)NC1CCc2c(c3cc(C#N)ccc3n2Cc2cccc(F)c2)C1 (stereo not drawn) [Example 213, N-[6-Cyano-9-(3-fluoro-benzyl)-2,3,4,9-tetrahydro-1H-carbazol-3-yl]-N′,N′-dimethylmethanesulfamide]
Ki [1]: 3.2 nM
EC50 [2]: 40.2 nM
Emax [2, 6]: 95.4%

Cc1csc(-c2ccc3c(c2)c2c(n3Cc3cccc(F)c3)CC[C@@H](NC(=O)C(C)C)C2)n1 [Example 128, (R)-N-[9-(3-Fluorobenzyl)-6-(4-methylthiazol-2-yl)-2,3,4,9-tetrahydro-1H-carbazol-3-yl]isobutyramide]
Ki [1]: 43 nM
EC50 [2]: 236 nM
Emax [2, 6]: 72.5%

CCC(=O)NC1CCc2c(c3cc(Br)ccc3n2Cc2cccc(F)c2)C1 (stereo not drawn) [Example 175]
Ki [1]: 3.2 nM
EC50 [2]: 11.2 nM
Emax [2, 6]: 80.2%

CC(C)C(=O)NC1CCc2c(c3cc(C#N)ccc3n2Cc2ccccn2)C1 (stereo not drawn) [Example 146]
Ki [1]: 12.7 nM
EC50 [2]: 15.5 nM
Emax [2, 6]: 86.8%
